Test results reported in patent US12472207B2, “Anti-inflammatory compositions and methods” (RR Medsciences Pty Ltd., priority 2019, dated 2025).

Columns and labels:
human skin explants [1] = experiment: UV-induced CPD in human skin explants (immunohistochemistry); format: cell-based; details: epidermis; treatment of UV-exposed explants (post-treatment, RM191A Gel 2); vs UV-exposed controls
From the text: FIG. 4: RM191A protects against UV-induced oxidative stress. (A) Representative images of immunohistochemical staining of CPDs in human explants from isotype control and sham exposed explants. There was little staining in the isotype control. […] (B) Representative images of immunohistochemical staining of CPDs in human skin explants from UV-exposed explants. (C) Analysis of CPD in epidermis of skin explants. Bars indicate significant differences **** p<0.001; NS=not significant between data sets (n=3 explants per data point).
(§1) Exposure of skin to UV radiation induces oxidative stress via a dramatic increase in ROS (see, Dunaway et al., 2018). In this section of the research work we measured oxidative DNA damage caused by UV-induced cyclobutene pyrimidine dimers (CPD), oxidative DNA damage resulting from UV-induced 8-oxo-guanine (8-oxoG), and nitrosative DNA damage caused by 8-nitroguanine (8NG) (Mason et al., 2013). Typically, if these DNA lesions are not adequately repaired, they lead to mutations which may then lead to the development of skin tumours (Mason et al., 2013). Our primary objective here was to determine if RM191A, when applied topically to ex vivo human skin, reduced UV-induced DNA damage.
(§2) The same treatment protocols were also followed for a placebo gel which contained no RM191A. […]

human skin explants [2] = experiment: UV-induced 8-nitroguanine (8NGO) in human skin explants (immunohistochemistry); format: cell-based; details: either protocol
From the text: FIG. 6. (A) Representative images of immunohistochemical staining of 8NGO in human explants from isotype control and sham exposed explants. (B) Representative images of immunohistochemical staining of 8NGO in human skin explants from UV-exposed explants. (C-D) Analysis of 8NGO in epidermis (C) and dermis (D) of skin explants. Bars indicate significant differences **** p<0.001; NS=not significant between data sets (n=3 explants per data point).
as §1, §2

human skin explants [3] = experiment: UV-induced 8-oxoG in human skin explants (immunohistochemistry); format: cell-based; details: epidermis; treatment of UV-exposed explants (post-treatment, RM191A Gel 2); vs UV-exposed controls
From the text: FIG. 5. (A) Representative images of immunohistochemical staining of 8-oxoG in human explants from isotype control and sham exposed explants. (B) Representative images of immunohistochemical staining of 8-oxoG in human skin explants from UV-exposed explants. (C-D) Analysis of 8-oxoG in (C) epidermis and (D) dermis of skin explants. Bars indicate significant differences **** p<0.001; NS=not significant between data sets (n=3 explants per data point).
as §1, §2

[4] = NBT superoxide scavenging (SOD-like activity) assay; format: biochemical; details: for Absorbance 560 nm Ave: SOD primary data
From the text: The purpose of these experiments was to measure the Superoxide Dismutase-like (SOD-like) activity of the copper ion complex (RM191A) depicted in the Examples below as “Cu”. The inventors employed a modified version of the method described by Beauchamp and Fridovich (see, Beauchamp et al. 1971). The reason for this modification was to create a reaction mixture that successfully generates known quantities of the O2^− free radical but does so at a pH at which the copper ion complex is stable—specifically in the range pH 6.5-7.8.
Because of the instability of its substrate, all available chemical assays of SOD and SOD-like activity are necessarily indirect and depend upon its ability to scavenge O2^− from reaction mixtures and thus to inhibit reactions caused by O2^−.
NitroBlue Tetrazolium (NBT) was selected as an indicator to measure and compare the superoxide scavenging activities of both bovine SOD and the copper ion complex (“RM191A,” the preparation of which is described in detail in International PCT Patent Publication No. WO/AU2016/201524), This assay utilizes photochemical events to generate O2^− in a sodium tetraborate buffered solution of acetone and isopropanol which is then irradiated by high energy UV light at 254 nm (Mercury Vapour Lamp) to create O2^− in the solution.
SOD and SOD-like substances inhibit the formation of the blue formazan by neutralising the superoxide free radicals as they are forming. Blue formazan has a characteristic UV absorbance at 560 nm. The quantitation of the UV absorbance of the reaction solution at 560 nm is a direct measure the SOD and SOD-like activity of a substance.
UV absorbances of the reaction solutions were measured at 560 nm following irradiation with UV light to determine the superoxide free radical scavenging activity in situ of both bovine SOD and the copper ion complex (RM191A).
Each reaction solution consists of 0.5 ml of 200 μmol/L NBT in borate buffer (pH=7.1) and 0.5 ml of a 200 μmol/L solution of the test compound in 5.0 mL of 5 mol/L isopropanol.
To each reaction vessel 15 mg acetone (20 μL) as added to begin the reaction. Each vessel was then irradiated with UV light at 254 nm (mercury vapour lamp) for 1 minute.
The reaction solution was then transferred into UV Vis cells and the absorbance at 560 nm was measured.
A number of test solution concentrations were assayed by adding, 1.0, 1.25, 1.5, 1.75, 2.0 mL of a 200 μmol/L solution of the test compound and bringing the total volume to 5.0 mL with 5 mol/L isopropanol.
The method uses a Cu control to remove the minor background copper absorbance.

| Molecule | decrease in CPD (human skin explants [1]) | 8NGO vs UV-exposed controls (human skin explants [2]) | decrease in nuclear 8-oxoG (human skin explants [3]) | Absorbance (Table 5) ([4]; 1.6 μM) | Absorbance (Table 5) ([4]; 20 μM) | Absorbance (Table 5) ([4]; 40 μM) | Absorbance (Table 5) ([4]; 80 μM) | Absorbance 560 nm Ave ([4]; Molarity 0.0000016) | Absorbance 560 nm Ave ([4]; Molarity 0.00002) | Absorbance 560 nm Ave ([4]; Molarity 0.00004) | Absorbance 560 nm Ave ([4]; Molarity 0.00008) | Absorbance 560 nm Ave ([4]; Molarity 0.0001) | Absorbance 560 nm Ave ([4]; Molarity 0.00012) | Absorbance 560 nm Ave ([4]; Molarity 0.00014) |
| --- | --- | --- | --- | --- | --- | --- | --- | --- | --- | --- | --- | --- | --- | --- |
| C=C1/C(=C\C=C2/CCC[C@]3(C)[C@@H]([C@H](C)CCCC(C)(C)O)CC[C@@H]23)C[C@@H](O)C[C@@H]1O [1,25D, 1,25-dihydroxy vitamin D3] | 30% | significantly decreased | 27% | – | – | – | – | – | – | – | – | – | – | – |
| SOD: bovine superoxide dismutase used as comparator | – | – | – | 0.2988 | 0.2879 | 0.2348 | 0.332 | 0.2988 | 0.2879 | 0.2348 | 0.332 | 0.3163 | 0.3215 | 0.3555 |
